{
  "source": "patent US20090181090A1",
  "about": "“Protein-Based Carrier System for Overcoming Resistance in Tumour Cells” (priority 2005, published 2009)",
  "key": {"UKF-NB3 Par. cells": {"test_system": "UKF-NB3 Par. cells", "assay": "MTT cytotoxicity test, parental neuroblastoma cells", "assay_type": "cell-based", "settings": "Homo sapiens, UKF-NB-3, 120 h, 5 days incubation"}, "UKF-NB3 Dxr-R. cells": {"test_system": "UKF-NB3 Dxr-R. cells", "assay": "MTT cytotoxicity test, doxorubicin-resistant neuroblastoma cells", "assay_type": "cell-based, human", "settings": "5 days incubation", "method": "To test the cytotoxicity of the doxorubicin nanoparticles (Dxr-NP) produced, as compared to a doxorubicin solution (Dxr-Soln) and a liposomal doxorubicin preparation (CAELYX®), the following cell lines were used:\ndoxorubicin-resistant cells of the human neuroblastoma cell line of the Universitätsklinikum Frankfurt (UKF-NB3 Dxr-R.)\nTo determine the cytotoxicity, the MTT test was used. In this test the viability of the cells in the presence of different concentrations of a substance is determined and is then compared with a cell control. From the results, the IC50 value (inhibitory concentration 50), i.e. the concentration of a substance at which 50% of the cells die, can be calculated. […] After dissolving the crystals with SDS/DMF solution, the colour intensity can be measured photometrically. […]\nOne column of the wells contained pure medium and corresponded to the blank value; in a second column the cells for the growth control (100% value) were cultivated. […] After a further incubation at 37° C. overnight, the colour crystals had dissolved completely, and the colour intensity in each well was measured photometrically at […]. By subtracting the blank value from the measured values and with reference to the control, the cell viability can be expressed in percent."}},
  "note": "Where two headings read alike, the source gives them in different places.",
  "data": [
    {"smiles": "COc1cccc2c1C(=O)c1c(O)c3c(c(O)c1C2=O)C[C@@](O)(C(=O)CO)C[C@@H]3O[C@H]1C[C@H](N)[C@H](O)[C@H](C)O1", "note": "[Dxr-Soln, doxorubicin]", "values": [
      {"measurement": "IC50", "setting": "UKF-NB3 Par. cells", "value": 0.0016, "unit": "µg/mL"},
      {"measurement": "IC50", "setting": "UKF-NB3 Dxr-R. cells", "value": 0.0535, "unit": "µg/mL"},
      {"measurement": "IC50", "setting": "UKF-NB3 Dxr-R. cells; Homo sapiens, UKF-NB-3, 120 h, read-out: IC50", "value": 0.0535, "unit": "µg/mL"}
    ]}
  ]
}
